Patent US20150030540A1 (Eli Lilly and Company, priority 2008, published 2015)
Like-named read-outs stand apart in the source and are kept apart here.

Legend:
Aβ monomer = molecular target: T1, Aβ monomer (Homo sapiens, UniProt P05067); settings: read-out: Binding Affinity IC50; cited from earlier work
T1 construct: Aβ monomer

[1] = Grey to white matter binding, autoradiography of AD patient brain slices; set-up: species or system human
Procedure: A study was conducted to examine the grey to white matter binding ratios for 4 different tracers: CB-001, CB-003, FDDNP and F-PiB (FIG. 7 and FIG. 8 of U.S. Ser. No. 12/372,717). […] After the human brain slices from AD patients were incubated with a given tracer for 30 min, the slices were washed with various EtOH:water solutions in an attempt to optimize the grey to white matter ratios (FIG. 9 of U.S. Ser. No. 12/372,717). The results were surprising and unexpected in view of previous work performed by other researchers. CB-001 has a slightly higher c Log P than FDDNP (3.8 vs 3.4) and would be expected to have poorer washout than FDDNP based on these values. […] More specifically, the white matter binding of FDDNP is several shades darker than CB-001's white matter binding, indicating low non-specific binding of CB-001.

[2] = molecular target: Amyloid (AD Patient's Brain Slice) (Homo sapiens, UniProt P05067); test: IC50 determination with [18F]-PiB by ex vivo competition assay using autoradiography staining; format: binding
Description: Ex Vivo Competition Assay Using Amyloid (AD Patient's Brain Slice) Autoradiography Staining

Chain of Amyloid (AD Patient's Brain Slice) (P05067 672-711 limits assumed): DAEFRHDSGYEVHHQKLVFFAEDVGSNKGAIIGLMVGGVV
T1 sequence (P05067 672-713 limits assumed): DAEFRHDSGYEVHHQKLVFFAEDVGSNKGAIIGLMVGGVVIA

O=S(=O)(O)c1cccc2cccc(Nc3ccccc3)c12 [ANS]
IC50 (Aβ monomer): > 100000 nM

FCCOCCOCCOc1ccc2c(c1)[nH]c1ccccc12 [CB-003, 2-(2-(2-(2-fluoroethoxy)ethoxy)ethoxy)-9H-carbazole]
differentiation of healthy and AD brain ([1]; mild wash protocol): clearly differentiate between a healthy brain and an AD brain
Grey/white matter binding ratio using mild wash conditions ([1]; mild wash: 30%/40%/20% EtOH:water): Excellent
grey to white matter binding ratios ([1]; milder washing conditions, text b481): excellent

Nc1c(/N=N/c2ccc(-c3ccc(/N=N/c4cc(S(=O)(=O)O)c5ccccc5c4N)cc3)cc2)cc(S(=O)(=O)O)c2ccccc12 [Congo Red]
IC50 (Aβ monomer): 2000 to 10000 nM

COc1cc(/C=C/C(=O)/C=C(O)/C=C/c2ccc(O)c(OC)c2)ccc1O [Curcumin]
IC50 (Aβ monomer): 10000 to 20000 nM

F-PiB
overall signal [1]: very weak
IC50 ([2]; average of determinations, read-out: Average IC50): 45 nM
IC50 ([2]; determination 9, read-out: IC50 9): 40 nM
IC50 ([2]; determination 10, read-out: IC50 10): 50 nM
IC50 ([2]; determination 11, read-out: IC50 11): 55 nM
IC50 ([2]; determination 12, read-out: IC50 12): 41 nM
